# Experimental data as given in patent EP1531819B1, “USE OF I kappa B KINASE INHIBITORS FOR THE TREATMENT OF PAIN” (Sanofi-Aventis Deutschland GmbH, priority 2002, dated 2004).
# How the values were obtained:
# [1] = system: Kaolin/Carrageenan induzierte Kniegelenksentzündung bei der Ratte; assay: Model 2: kaolin/carrageenan-induced knee joint inflammation, responses of spinal neurons to pressure on the knee; assay type: in vivo
# Description: Modell: Zymosan-induzierte Pfotenentzündung bei der Ratte; Parameter: Pfotenwegziehzeit oder Pfotenwegziehschwelle bei thermischer oder mechanischer Stimulation der Hinterpfote. • 2. Modell: Kaolin/Carrageenan induzierte Kniegelenksentzündung bei der Ratte; Parameter: Reaktion spinaler Neurone bei Druckreizung des Knies.
# Versuchsdurchführung: Bei Ratten wurde in Trapanal-Narkose der Wirbelkanal eröffnet und Rückenmarksneurone, die "Schmerzimpulse" aus dem Kniegelenk verarbeiteten, identifiziert. Nach Identifizierung wurde eine Langzeitableitung durchgeführt, in der die Aktivität der Nervenzelle vor und während der Entwicklung einer akuten Entzündung im Kniegelenk registriert wurde. Dazu wurden in einer Kontrollperiode vor Induktion der Entzündung und nach Induktion der Entzündung für mehrere Stunden die Antworten auf nicht noxische und noxische Reizung am Kniegelenk gemessen.
# Die akute Entzündung wurde durch die intraartikuläre Injektion einer Kaolin und Carrageenan Suspension (etwa 150 µl) induziert. In Kontrollexperimenten wurde nur das Vehikel auf die Rückenmarksoberfläche aufgebracht, um die Entwicklung der Übererregbarkeit unter Kontrollbedingungen darzustellen. In der Regel fand diese Entwicklung der Übererregbarkeit innerhalb von 2 bis 4 Stunden statt, und sie äußerte sich in einer starken Zunahme der Antworten auf nicht noxische und noxische Reizung des Kniegelenks (Tab. 3). […] Dann wurden die Antworten der Zelle auf nichtnoxische und noxische Reizung wie in den Kontrollexperimenten weiter verfolgt.
# [2] = system: Zymosan-induzierte Pfotenentzündung bei der Maus; assay: Model 3: zymosan-induced paw inflammation, paw withdrawal latency on thermal stimulation (Hargreaves Test), AUC; assay type: in vivo; settings: for AUC Mittelwert [Maß für Hyperalgesie]: thermische Hyperalgesie
# Experimental: Parameter: Pfotenwegziehzeit bei thermischer Stimulation der Hinterpfote. Versuchsdurchführung: In Kurzzeitnarkose mit Isofluran wurde dem Versuchstier 25 μl einer Suspension, die 50 mg/ml Zymosan enthielt, in die rechte Hinterpfote injiziert. Dann wurde die […] quantitativ wie folgt bestimmt: Bestimmung der Pfotenwegziehzeit bei thermischer Stimulation (Hargreaves Test; s.o.). Das Versuchstier wurde in […] Versuchstier nach der Erkundungsphase (etwa 5 min) nicht mehr bewegte, wurde […] zu stimulierenden Hinterpfote positioniert und […]. Die […] ab, so dass die Hauttemperatur […] linear […] Pfote […] ab. Die Pfotentemperatur zum Zeitpunkt des Wegziehens ist für das Tier gerade eben unangenehm, […] von thermischer Schmerzschwelle. Kurz vor Zymosan-Injektion und für 7 bis 14 Tage nach Injektion wurde […] an der rechten und linken Hinterpfote bestimmt. Anschließend wurde […] Integral der Fläche, die aus […] und […] Pfote gebildet wurde, bestimmt (AUC, area between the curves, s. Tabellen 5 und 6). Je größer dieser Wert ist, umso […], und je kleiner der Wert bei Tieren, die die Substanz erhalten, desto stärker ist der Therapieerfolg. In einer 7-Tage Studie induzierte die Zymosan Injektion in […], Tab. 5). In den anderen Gruppen wurde die Substanzgabe einen Tag nach Zymosan Injektion, […] schon […]. […] Die […] Studie (7 Tage) ergab, dass die AUC unter Substanzgabe dosisabhängig abnahm. […] In einer parallel […] von Tieren wurde Paracetamol in einer sehr hohen Dosis ebenfalls zweimal am Tag verabreicht. […] Paracetamol (Tab. 5). […] […] Zymosan Injektion und Dosierschema […] zuvor beschriebenen Studie. Einziger Unterschied war, dass die weitere Studie über 14 Tage lief.
# [3] = system: Zymosan-induzierte Pfotenentzündung bei der Maus; assay: Model 4: zymosan-induced paw inflammation, spontaneous running wheel performance, AUC; assay type: in vivo, C57/B6 Mäuse
# Description: Das Versuchstier hat in seinem Haltungskäfig Zugang zu einem Laufrad, dessen Umdrehungen elektronisch registriert werden. Die C57/B6 Mäuse benutzen in den Nachtstunden freiwillig das Laufrad und legen im Mittel nach einer einwöchigen Gewöhnungsphase 4100 Meter/Nacht zurück. Nach Zymosan Injektion ist die nächtliche Laufstrecke verkürzt. Diese Abnahme der Laufleistung gilt als Parameter für entzündungsschmerzbedingte Funktionseinschränkung. Versuchsdurchführung: Die Laufstrecke/24 Std. wurde nach einer Eingewöhnungsphase eine Woche lang zur Bestimmung der Baseline gemessen. Dann wurde in Kurzzeitnarkose mit Isofluran dem Versuchstier 25 µl einer Suspension, die […] Zymosan enthielt, in die rechte Hinterpfote injiziert. Anschließend wurde Laufstrecke/24 Std. während der nächsten sieben Tage ermittelt. In der Auswertung wurde die Fläche unter der Kurve der Laufstreckenwerte bestimmt (AUC, Tab. 7): je kleiner die AUC, desto geringer die Laufleistung in der Woche nach Zymosan Injektion. […] Die Substanzgabe wurde am Tag 1 nach Zymosan Injektion begonnen.
# [4] = Versuch 1, 30-60 min nach K/C-Injektion
# [5] = Versuch 1, 60-120 min nach K/C-Injektion
# [6] = Versuch 1, 120-180 min nach K/C-Injektion
# [7] = Versuch 2, 30-60 min nach K/C-Injektion
# [8] = Versuch 2, 120-180 min nach K/C-Injektion
# [9] = Versuch 2, 180-240 min nach K/C-Injektion
# [10] = 7 days after Zymosan, 200 mg/kg twice daily
compound,measurement,setting,value
2-(2-Methylamino-pyrimidin-4-yl)-1 H-benzoimidazol-5-carbonsäure ((S)1-carbamoyl-2- diphenylamin-ethyl)-amid [Verbindung 22],Wirkung im Modell 2,[1],gute Wirkung
same,"Neuronale Antworten vor und während Kniegelenksentzündung, Nicht-noxische Reizung am Kniegelenk",[1]; [4],"-34,1 imp/15s"
same,"Neuronale Antworten vor und während Kniegelenksentzündung, Noxische Reizung am Kniegelenk",[1]; [4],"-109,1 imp/15s"
same,"Neuronale Antworten vor und während Kniegelenksentzündung, Nicht-noxische Reizung am Kniegelenk",[1]; [5],"-37,2 imp/15s"
same,"Neuronale Antworten vor und während Kniegelenksentzündung, Noxische Reizung am Kniegelenk",[1]; [5],"-101,1 imp/15s"
same,"Neuronale Antworten vor und während Kniegelenksentzündung, Nicht-noxische Reizung am Kniegelenk",[1]; [6],"-32,1 imp/15s"
same,"Neuronale Antworten vor und während Kniegelenksentzündung, Noxische Reizung am Kniegelenk",[1]; [6],"-37,8 imp/15s"
same,"Neuronale Antworten vor und während Kniegelenksentzündung, Nicht-noxische Reizung am Kniegelenk","[1]; Versuch 1, Baseline",0 imp/15s
same,"Neuronale Antworten vor und während Kniegelenksentzündung, Noxische Reizung am Kniegelenk","[1]; Versuch 1, Baseline",0 imp/15s
same,"Neuronale Antworten vor und während Kniegelenksentzündung, Nicht-noxische Reizung am Kniegelenk",[1]; [7],"-30,6 imp/15s"
same,"Neuronale Antworten vor und während Kniegelenksentzündung, Noxische Reizung am Kniegelenk",[1]; [7],"-9,2 imp/15s"
same,"Neuronale Antworten vor und während Kniegelenksentzündung, Nicht-noxische Reizung am Kniegelenk",[1]; [8],"50,3 imp/15s"
same,"Neuronale Antworten vor und während Kniegelenksentzündung, Noxische Reizung am Kniegelenk",[1]; [8],60 imp/15s
same,"Neuronale Antworten vor und während Kniegelenksentzündung, Nicht-noxische Reizung am Kniegelenk",[1]; [9],"68,7 imp/15s"
same,"Neuronale Antworten vor und während Kniegelenksentzündung, Noxische Reizung am Kniegelenk",[1]; [9],"96,7 imp/15s"
same,"Neuronale Antworten vor und während Kniegelenksentzündung, Nicht-noxische Reizung am Kniegelenk","[1]; Versuch 2, Baseline",0 imp/15s
same,"Neuronale Antworten vor und während Kniegelenksentzündung, Noxische Reizung am Kniegelenk","[1]; Versuch 2, Baseline",0 imp/15s
"Cc1ccc(-c2cc(C(F)(F)F)nn2-c2ccc(S(N)(=O)=O)cc2)cc1 [Celecoxib, reference compound]",AUC Mittelwert [Maß für Hyperalgesie],"[2]; 14 days after Zymosan, 25 mg/kg twice daily",51.5
"CC(=O)Nc1ccc(O)cc1 [Paracetamol, reference compound]",Statistischer Unterschied gegenüber Vehikel,"[2]; thermische Hyperalgesie AUC, 7 days, 200 mg/kg twice daily",ja
same,AUC Mittelwert [Maß für Hyperalgesie],[2]; [10],24.6
same,AUC Mittelwert (Laufradaktivität),[3]; [10],187.2
same,Laufleistung nach Zymosan Injektion gegenüber der Vehikelgruppe,"[3]; 7 days, twice daily",keine Verbesserung gegenüber der Vehikelgruppe
same,Statistischer Unterschied gegenüber Vehikel,"[3]; Laufradaktivität AUC, 7 days, 200 mg/kg twice daily",nein
